{"source": "ChEMBL document CHEMBL1146396", "about": "“(2E,9E)-pyronaamidine 9-(N-methylimine), a new imidazole alkaloid from the northern Mariana islands sponge Leucetta sp. cf. chagosensis” (1997)", "type_in_all_cases": "functional", "key": {"Bacillus subtilis": {"system": "Bacillus subtilis", "test": "Antimicrobial activity against Bacillus subtilis at 100 ug/disk", "details": "read-out: IZ"}, "Candida albicans": {"system": "Candida albicans", "test": "Antimicrobial activity against Candida albicans at 100 ug/disk", "details": "read-out: IZ"}, "HT-29": {"system": "HT-29", "test": "Cytotoxicity against human HT-29 cells"}, "A549": {"system": "A549", "test": "Cytotoxicity against human A549 cells"}, "MCF7": {"system": "MCF7", "test": "Cytotoxicity against human MCF7 cells"}}, "data": [{"smiles": "COc1ccc(Cc2nc(/N=C3\\NC(=O)N(C)C3=O)n(C)c2Cc2ccc(OC)c(OC)c2O)cc1", "note": "[PYRONAAMIDINE]", "values": [{"measurement": "zone of inhibition at 100 µg/disc", "setting": "Bacillus subtilis", "result": 10, "unit": "mm"}, {"measurement": "zone of inhibition at 100 µg/disc", "setting": "Candida albicans", "result": 7, "unit": "mm"}]}, {"smiles": "C/N=C1N=C(/N=c2\\[nH]c(Cc3ccc(OC)cc3)c(Cc3ccc(OC)c(OC)c3O)n2C)C(=O)N\\1C", "values": [{"measurement": "GI50", "setting": "HT-29", "result": 6, "unit": "µg/mL"}, {"measurement": "GI50", "setting": "A549", "result": 6, "unit": "µg/mL"}, {"measurement": "GI50", "setting": "MCF7", "result": 3, "unit": "µg/mL"}]}]}
